Assay results as given in ChEMBL document CHEMBL3045908, “Phenolic and iridoid glycosides from the rhizomes of Cyperus rotundus L” (Med Chem Res, 2013).

What follows are molecules tested on RAW264.7 (assay: Anti-inflammatory activity in Mus musculus (mouse) RAW264.7 cells assessed as inhibition of PMA-induced macrophages respiratory burst measured up to 30 min by chemiluminescence method). Conditions: RAW264.7, 0.5 h.
Assay type: functional, cell-based
`COC(=O)C1=CO[C@@H](O[C@@H]2O[C@H](CO[C@@H]3O[C@H](COC(=O)/C=C/c4ccc(O)cc4)[C@@H](O)[C@H](O)[C@H]3O)[C@@H](O)[C@H](O)[C@H]2O)[C@@H]2C(CO)=CC[C@H]12` [6'-O-P-COUMAROYLGENIPIN GENTIOBIOSIDE] gave an IC50 of 78.7 µM. `COc1cc(/C=C/C(=O)O[C@H]2[C@H](O[C@@H]3O[C@H](CO)[C@@H](O)[C@H](O)[C@H]3O)[C@@H](O[C@@H]3OC[C@H](O)[C@H](O)[C@H]3O)[C@H](OCCc3ccc(O)c(O)c3)O[C@@H]2CO)ccc1O` [CHIONOSIDE A] showed an IC50 of 336 µM. `C[C@@H]1C[C@H]2[C@@H]3CCC4=CC(=O)C=C[C@]4(C)[C@@]3(F)[C@@H](O)C[C@]2(C)[C@@]1(O)C(=O)CO` [DEXAMETHASONE] was tested, and the IC50 was 355 µM. For `COc1cc(/C=C/C(=O)O[C@H]2[C@H](O[C@@H]3O[C@H](CO)[C@@H](O)[C@H](O)[C@H]3O)[C@@H](O[C@@H]3OC[C@H](O)[C@H](O)[C@H]3O)[C@H](OCCc3ccc(O)c(O)c3)O[C@@H]2CO[C@@H]2OC[C@H](O)[C@@H](O)[C@@H]2O)ccc1O` [HELIOSIDE C], the IC50 was 320 µM. For `O=C(/C=C/c1ccc(O)cc1)OC[C@H]1O[C@@H](OCCc2ccc(O)c(O)c2)[C@H](O[C@@H]2OC[C@H](O)[C@H](O)[C@H]2O)[C@@H](O[C@@H]2O[C@H](CO)[C@@H](O)[C@H](O)[C@H]2O)[C@@H]1O` [ISOARAGOSIDE], the IC50 was 308 µM. Molecule `COC(=O)C1=CO[C@@H](O[C@@H]2O[C@H](CO)[C@@H](O)[C@H](O)[C@H]2O)[C@@H]2C(CO)=C[C@@H](OC[C@H]3O[C@@H](O[C@@H]4OC=C(C(=O)OC)[C@H]5C=C[C@](O)(CO)[C@@H]45)[C@H](O)[C@@H](O)[C@@H]3O)[C@H]12` [ROTUNDUSIDE A] has an IC50 of 217 µM. Molecule `COC(=O)C1=CO[C@@H](O[C@@H]2O[C@H](CO[C@@H]3O[C@H](COC(=O)/C=C/c4cc(O)c(O)c(O)c4)[C@@H](O)[C@H](O)[C@H]3O)[C@@H](O)[C@H](O)[C@H]2O)[C@@H]2C(CO)=CC[C@H]12` [ROTUNDUSIDE B] has an IC50 of 31.1 µM. `C[C@@H]1O[C@@H](OC[C@H]2O[C@@H](Oc3c(-c4ccc(O)c(O)c4)oc4cc(O)cc(O)c4c3=O)[C@H](O)[C@@H](O)[C@@H]2O)[C@H](O)[C@H](O)[C@H]1O` [RUTIN] was tested, and the IC50 was 15.1 µM.
